Patent publication US10954216B2, “BMP-signal-inhibiting compound” (RIKEN, priority 2016, dated 2021)
pIC50: −log10 of the molar value. Counter-ions that a name gives are not always drawn.

system: BMP signal in MDA-231-D-BREFluc/Rluc cells; experiment: BMP signal inhibitory effect (AlphaScreen SureFire SMAD1 p-Ser463/465, BMP-6 stimulation); format: cell-based; settings: BMP-6 stimulated MDA-231-D-BREFluc/Rluc cells, phospho-SMAD1 AlphaScreen; read-out: IC50
Method in brief: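 Read-out was phospho-SMAD1 (Ser463/465) by AlphaScreen SureFire after 30 min BMP-6 stimulation at 37° C. Before stimulation, MDA-231-D-BREFluc/Rluc cells were incubated with test compound at 37° C for 2 h.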

Row | pIC50 | SMILES
1 | 7.49 | CCn1cc(-c2ccnc(Nc3cnn(C4CCN(C5COC5)CC4)c3)n2)c(-c2cccnc2)n1 [Example 128, 4-(1-Ethyl-3-(pyridin-3-yl)-1H-pyrazol-4-yl)-N-(1-(1-(oxetan-3-yl)piperidin-4-yl)-1H-pyrazol-4-yl)pyrimidin-2-amine]
2 | 8.30 | CCn1cc(-c2ccnc(Nc3ccc(C(=O)N4CCN(C(C)C)CC4)cc3)n2)c(-c2cccnc2)n1 [Example 119, (4-((4-(1-Ethyl-3-(pyridin-3-yl)-1H-pyrazol-4-yl)pyrimidin-2-yl)amino)phenyl) (4-isopropylpiperazin-1-yl)methanone]
3 | 8.21 | CCn1cc(-c2ccnc(Nc3ccc(C(=O)N4CCN(C5CCCCC5)CC4)cc3)n2)c(-c2cccnc2)n1 [Example 120, (4-Cyclohexylpiperazin-1-yl) (4-((4-(1-ethyl-3-(pyridin-3-yl)-1H-pyrazol-4-yl)pyrimidin-2-yl)amino)phenyl) methanone]
4 | 8.24 | CCn1cc(-c2ccnc(Nc3ccc4c(c3)CCN(CC3CCCO3)C4)n2)c(-c2cccnc2)n1 (stereo not shown) [Example 89, N-(4-(1-Ethyl-3-(pyridin-3-yl)-1H-pyrazol-4-yl)pyrimidin-2-yl)-2-((tetrahydrofuran-2-yl)methyl)-1,2,3,4-tetrahydroisoquinolin-6-amine]
5 | 7.79 | CCn1cc(-c2ccnc(Nc3ccc(OC4CNC4)cc3)n2)c(-c2cccnc2)n1 [Example 145, N-(4-(Azetidin-3-yloxy)phenyl)-4-(1-ethyl-3-(pyridin-3-yl)-1H-pyrazol-4-yl)pyrimidin-2-amine]
6 | 7.63 | CCn1cc(-c2ccnc(Nc3ccc(N4CCN(CC5(C)COC5)CC4)cc3)n2)c(-c2cccnc2)n1 [Example 98, 4-(1-ethyl-3-(pyridin-3-yl)-1H-pyrazol-4-yl)-N-(4-(4-((3-methyloxetan-3-yl)methyl)piperazin-1-yl)phenyl)pyrimidin-2-amine]
7 | 7.30 | COCCN1CCN(c2ccc(Nc3nccc(-c4cn(CC5COC5)nc4-c4cccnc4)n3)cc2)CC1 [Example 102, N-(4-(4-(2-Methoxyethyl)piperazin-1-yl)phenyl)-4-(1-(oxetan-3-ylmethyl)-3-(pyridin-3-yl)-1H-pyrazol-4-yl)pyrimidin-2-amine]
8 | 8.96 | CCn1cc(-c2ccnc(Nc3ccc4c(c3)CCN(C)CC4)n2)c(-c2cccnc2)n1 [Example 115, N-(4-(1-Ethyl-3-(pyridin-3-yl)-1H-pyrazol-4-yl)pyrimidin-2-yl)-3-methyl-2,3,4,5-tetrahydro-1H-benzo [d] azepin-7-amine]
9 | 7.94 | CCn1cc(-c2ccnc(Nc3ccc(OC4CCNCC4F)cc3)n2)c(-c2cccnc2)n1 (stereo not shown) [Example 164, 4-(1-Ethyl-3-(pyridin-3-yl)-1H-pyrazol-4-yl)-N-(4-((3-fluoropiperidin-4-yl)oxy)phenyl) pyrimidin-2-amine]
10 | 8.10 | CCn1cc(-c2ccnc(Nc3ccc(C4CCCN(C)C4)cc3)n2)c(-c2cccnc2)n1 (stereo not shown) [Example 113, 4-(1-Ethyl-3-(pyridin-3-yl)-1H-pyrazol-4-yl)-N-(4-(1-methylpiperidin-3-yl)phenyl)pyrimidin-2-amine]
11 | 7.66 | CCn1cc(-c2ccnc(Nc3ccc(-c4ccncc4)cc3)n2)c(-c2cccnc2)n1 [Example 134, 4-(1-Ethyl-3-(pyridin-3-yl)-1H-pyrazol-4-yl)-N-(4-(pyridin-4-yl)phenyl)pyrimidin-2-amine]
12 | 7.91 | CCn1cc(-c2ccnc(Nc3ccc(N4CCN(C5CCOCC5)CC4)cc3)n2)c(-c2cccnc2)n1 [Example 130, 4-(1-Ethyl-3-(pyridin-3-yl)-1H-pyrazol-4-yl)-N-(4-(4-(tetrahydro-2H-pyran-4-yl)piperazin-1-yl)phenyl)pyrimidin-2-amine]
13 | 7.73 | CCn1cc(-c2ccnc(Nc3ccc(-c4cccnc4)cc3)n2)c(-c2cccnc2)n1 [Example 133, 4-(1-ethyl-3-(pyridin-3-yl)-1H-pyrazol-4-yl)-N-(4-(pyridin-3-yl)phenyl)pyrimidin-2-amine]
14 | 7.48 | COCC(O)CN1CCN(c2ccc(Nc3nccc(-c4cn(C5COC5)nc4-c4cccnc4)n3)cc2)CC1 (stereo not shown) [Example 110, 1-Methoxy-3-(4-(4-((4-(1-(oxetan-3-yl)-3-(pyridin-3-yl)-1H-pyrazol-4-yl)pyrimidin-2-yl)amino)phenyl)piperazin-1-yl)propan-2-ol]
15 | 7.83 | CCn1cc(-c2ccnc(Nc3ccc(N4CCC(C(C)(C)N)CC4)cc3)n2)c(-c2cccnc2)n1 [Example 178]

The remaining lines, values behind:

Row | SMILES | pIC50
16 | FC(F)(F)OCCn1cc(-c2ccnc(Nc3ccc(N4CCNCC4)cc3)n2)c(-c2cccnc2)n1 [Example 72, N-(4-(Piperazin-1-yl)phenyl)-4-(3-(pyridin-3-yl)-1-(2-(trifluoromethoxy)ethyl)-1H-pyrazol-4-yl)pyrimidin-2-amine] | 7.87
17 | COCCn1cc(-c2ccnc(Nc3ccc(N4CCN(C)CC4)cc3)n2)c(-c2cccnc2)n1 [Example 35, 4-(1-(2-methoxyethyl)-3-(pyridin-3-yl)-1H-pyrazol-4-yl)-N-(4-(4-methylpiperazin-1-yl)phenyl)pyrimidin-2-amine] | 7.65
18 | CCn1cc(-c2ccnc(Nc3ccc(N4CCN(CC5CCCN5C)CC4)cc3)n2)c(-c2cccnc2)n1 (stereo not shown) [Example 78, 4-(1-Ethyl-3-(pyridin-3-yl)-1H-pyrazol-4-yl)-N-(4-(4-((1-methylpyrrolidin-2-yl)methyl)piperazin-1-yl)phenyl)pyrimidin-2-amine] | 7.90
19 | CCn1cc(-c2ccnc(Nc3ccc(C4CCN(C(=O)CO)CC4)cc3)n2)c(-c2cccnc2)n1 [Example 59, 1-(4-(4-((4-(1-ethyl-3-(pyridin-3-yl)-1H-pyrazol-4-yl)pyrimidin-2-yl)amino)phenyl)piperidin-1-yl)-2-hydroxyethan-1-one] | 7.60
20 | CCn1cc(-c2ccnc(Nc3cnn(C4CCN(CCOC)CC4)c3)n2)c(-c2cccnc2)n1 [Example 55, 4-(1-ethyl-3-(pyridin-3-yl)-1H-pyrazol-4-yl)-N-(1-(1-(2-methoxyethyl)piperidin-4-yl)-1H-pyrazol-4-yl)pyrimidin-2-amine oxalate] | 7.67
21 | COCCN1CCN(c2ccc(Nc3nccc(-c4cn(CC5(C)COC5)nc4-c4cccnc4)n3)cc2)CC1 [Example 77] | 7.29
22 | CCn1cc(-c2ccnc(Nc3ccc(N4CCN(C5CC5)CC4)cc3)n2)c(-c2cccnc2)n1 [Example 32, N-(4-(4-cyclopropylpiperazin-1-yl)phenyl)-4-(1-ethyl-3-(pyridin-3-yl)-1H-pyrazol-4-yl)pyrimidin-2-amine] | 7.67
23 | CCn1cc(-c2ccnc(Nc3ccc4c(c3)OCCN(C)C4)n2)c(-c2cccnc2)n1 [Example 67, N-(4-(1-ethyl-3-(pyridin-3-yl)-1H-pyrazol-4-yl)pyrimidin-2-yl)-4-methyl-2,3,4,5-tetrahydrobenzo[f][1,4]oxazepin-8-amine] | 8.28
24 | CCn1cc(-c2ccnc(Nc3ccc(-c4cn[nH]c4)cc3)n2)c(-c2cccnc2)n1 [Example 30, N-(4-(1H-pyrazol-4-yl)phenyl)-4-(1-ethyl-3-(pyridin-3-yl)-1H-pyrazol-4-yl)pyrimidin-2-amine] | 7.48
25 | COCCn1cc(-c2ccnc(Nc3ccc4c(c3)CN(C)C4)n2)c(-c2cccnc2)n1 [Example 60, N-(4-(1-(2-methoxyethyl)-3-(pyridin-3-yl)-1H-pyrazol-4-yl)pyrimidin-2-yl)-2-methylisoindolin-5-amine] | 8.19
26 | COCCN1CCC(c2ccc(Nc3nccc(-c4cn(C5COC5)nc4-c4cccnc4)n3)cc2)CC1 [Example 12, N-(4-(1-(2-methoxyethyl)piperidin-4-yl)phenyl)-4-(1-(oxetan-3-yl)-3-(pyridin-3-yl)-1H-pyrazol-4-yl)pyrimidin-2-amine] | 8.18
27 | CCn1cc(-c2ccnc(Nc3ccc4c(c3)CN(CC3CCCO3)CC4)n2)c(-c2cccnc2)n1 (stereo not shown) [Example 88, N-(4-(1-Ethyl-3-(pyridin-3-yl)-1H-pyrazol-4-yl)pyrimidin-2-yl)-2-((tetrahydrofuran-2-yl)methyl)-1,2,3,4-tetrahydroisoquinolin-7-amine] | 8.26
28 | CCn1cc(-c2ccnc(Nc3ccc(-n4cnc(C)n4)cc3)n2)c(-c2cccnc2)n1 [Example 26, 4-(1-ethyl-3-(pyridin-3-yl)-1H-pyrazol-4-yl)-N-(4-(3-methyl-1H-1,2,4-triazol-1-yl)phenyl)pyrimidin-2-amine] | 7.73
29 | CN1CCc2cc(Nc3nccc(-c4cn(CC(C)(C)O)nc4-c4cccnc4)n3)ccc2C1 [Example 65, 2-Methyl-1-(4-(2-((2-methyl-1,2,3,4-tetrahydroisoquinolin-6-yl)amino)pyrimidin-4-yl)-3-(pyridin-3-yl)-1H-pyrazol-1-yl)propan-2-ol] | 8.48
30 | CCn1cc(-c2ccnc(Nc3ccc(-c4nnc(C)s4)cc3)n2)c(-c2cccnc2)n1 [Example 56, 4-(1-Ethyl-3-(pyridin-3-yl)-1H-pyrazol-4-yl)-N-(4-(5-methyl-1,3,4-thiadiazol-2-yl)phenyl)pyrimidin-2-amine] | 7.75
31 | CCn1cc(-c2ccnc(Nc3ccc(N4CCN(CCOC)CC4)c(C#N)c3)n2)c(-c2cccnc2)n1 [Example 83, 5-((4-(1-Ethyl-3-(pyridin-3-yl)-1H-pyrazol-4-yl)pyrimidin-2-yl)amino)-2-(4-(2-methoxyethyl)piperazin-1-yl)benzonitrile] | 7.84
32 | CCn1cc(-c2ccnc(Nc3cnn(C4CN(CC(C)(C)O)C4)c3)n2)c(-c2cccnc2)n1 [Example 48, 1-(3-(4-((4-(1-Ethyl-3-(pyridin-3-yl)-1H-pyrazol-4-yl)pyrimidin-2-yl)amino)-1H-pyrazol-1-yl)azetidin-1-yl)-2-methylpropan-2-ol] | 7.67
33 | COCCn1cc(-c2ccnc(Nc3ccc(C4CCN(C5COC5)CC4)cc3)n2)c(-c2cccnc2)n1 [Example 13] | 7.57
34 | CCn1cc(-c2ccnc(Nc3ccc4c(c3)CCN(C3CC3)CC4)n2)c(-c2cccnc2)n1 [Example 66, 3-Cyclopropyl-N-(4-(1-ethyl-3-(pyridin-3-yl)-1H-pyrazol-4-yl)pyrimidin-2-yl)-2,3,4,5-tetrahydro-1H-benzo[d]azepin-7-amine] | 8.19
